Source: patent US20260209297A1, “ANTIMICROBIAL PEPTIDES AND MODIFICATIONS THEREOF” (priority 2022, published 2026)
Converted amounts (≈) assume the structure as drawn. Positions of bridges follow the written chain, without caps; N, C: chain ends. Non-standard residues stand in square brackets, D forms with d. Residues, ends and D or L forms follow the SMILES beside them. No end group written: not given here. Dab = NCC[C@H](N)C(=O)O

How the values were obtained:
[1] = tested on: B. cinerea; assay: MIC antifungal assay in SFM culture media (with or without added salts); format: cell-based, Botrytis cinerea
[2] = tested on: Alternaria alternata; assay: 96-well plate MIC assay with resazurin viability; format: cell-based; settings: Table 19; unit not given (peptide concentrations in μM)
[3] = tested on: Cercospora sojina; assay: 96-well plate MIC assay with resazurin viability; format: cell-based; settings: Table 19; unit not given (peptide concentrations in μM)
[4] = tested on: Colletotrichum gloeosporioides; assay: 96-well plate MIC assay with resazurin viability; format: cell-based; settings: Table 19; unit not given (peptide concentrations in μM)
[5] = tested on: B. cinerea; assay: Semi-in planta gray mold assay on detached Nicotiana benthamiana leaves (drop inoculation); format: in vivo, Botrytis cinerea; settings: for gray mold symptoms, drop inoculation assay: 3 and 6 μM
[6] = tested on: Botrytis cinerea T-4; settings: Table 18
[7] = tested on: F. graminearum; format: cell-based, Fusarium graminearum
[8] = tested on: Fusarium graminearum PH-1; format: cell-based; settings: Fusarium graminearum PH-1; MIC Day 1; 96-well, resazurin viability

`CC[C@H](C)[C@H](NC(=O)[C@H](CCCNC(=N)N)NC(=O)[C@@H](NC(=O)[C@H](Cc1c[nH]c2ccccc12)NC(=O)[C@H](Cc1ccccc1)NC(=O)[C@H](Cc1c[nH]c2ccccc12)NC(=O)[C@H](CCCNC(=N)N)NC(=O)[C@H](CCCNC(=N)N)NC(=O)[C@H](CCCNC(=N)N)NC(=O)[C@H](Cc1ccccc1)NC(=O)CNC(=O)[C@H](CCCCN)NC(=O)[C@H](CS)NC(=O)[C@H](CCCNC(=N)N)NC(=O)CNC(=O)CN)[C@@H](C)O)C(=O)N[C@@H](CS)C(N)=O` [GMA4C_V6A] (H-GGRCKGFRRRWFWTRIC-NH2; N-terminus assumed) was tested. Which “antifungal activity relative to the wild-type GMA4C_AC control, B. cinerea” value ([1]; in vitro, low cationic conditions) did it give?
Its value is “four-fold increase”.

What does the source list for `NCC[C@H](NC(=O)CNC(=O)[C@@H](N)Cc1ccccc1)C(=O)N[C@@H](CS)C(=O)N[C@@H](CCN)C(=O)NCC(=O)N[C@@H](Cc1ccccc1)C(=O)N[C@@H](CCN)C(=O)N[C@@H](CCN)C(=O)N[C@@H](CCN)C(=O)N[C@@H](CS)C(=O)N[C@@H](Cc1ccccc1)C(=O)N[C@@H](CS)C(=O)N[C@@H](Cc1c[nH]c2ccccc12)C(=O)N[C@@H](CCN)C(=O)N[C@@H](Cc1c[nH]c2ccccc12)C(=O)N[C@@H](CS)C(=O)O` [GMA4C_V5, FG(Dab)C(Dab)GF(Dab)(Dab)(Dab)CFCW(Dab)WC] (H-FG[Dab]C[Dab]GF[Dab][Dab][Dab]CFCW[Dab]WC-OH; N-terminus assumed)?
SFM + 2 mM CaCl2 MIC (μM) ([1]; B. cinerea, Table 4): >6 (very μM; SFM + 2 mM CaCl2 MIC (μM) ([1]; Table 10): >6 (very μM

“GRCRGFRRRCFCTTHC-NH2 (cysteine pairing not given here) [GMA4AC_WT, reference compound]” was tested. Which “MIC Alternaria alternata” value [2] did it give?
The value was over 12.

And the “MIC Cercospora sojina” value [3]?
Its value is over 12.

What about the “MIC Colletotrichum gloeosporioides” value [4] of the same molecule?
Its value is over 12.

With `CC[C@H](C)[C@@H]1NC(=O)[C@H](CCCNC(=N)N)NC(=O)[C@@H](NC(=O)[C@H](CCCNC(=N)N)NC(=O)CNC(=O)[C@@H](N)CO)CSSC[C@@H](C(N)=O)NC(=O)[C@H](CC(N)=O)NC(=O)[C@H](CCCCN)NC(=O)[C@H]([C@@H](C)O)NC(=O)[C@H](Cc2c[nH]c3ccccc23)NC(=O)[C@H](Cc2ccccc2)NC(=O)[C@H](Cc2c[nH]c3ccccc23)NC(=O)[C@H](CCCNC(=N)N)NC(=O)[C@H](Cc2ccccc2)NC(=O)[C@H](CC(C)C)NC1=O` [GMA1C_V2] (H-SGRCRILFRWFWTKNC-NH2; disulfide 4-16; N-terminus assumed) as the molecule, how does the “gray mold symptoms, drop inoculation assay, comparison within the peptide family” value ([5]; 1.5 μM) read?
Its value is “more effective”.

What about the “gray mold symptoms, drop inoculation assay” value [5] of the same molecule?
Its value is “completely abrogated gray mold symptoms”.

What about the “MIC (μM) (SFM + 2 mM CaCl2)” value [6] of the same molecule?
Its value is 3 µM.

And the “MIC (μM) (SFM + 100 mM KCl)” value [6]?
The value was over 12 µM.

And the “MIC (μM) (SFM + 100 mM NaCl)” value [6]?
The value was 3 µM.

What does the source list for `C[C@@H](O)[C@H](NC(=O)[C@H](CS)NC(=O)[C@H](Cc1ccccc1)NC(=O)[C@H](CS)NC(=O)[C@H](CCCNC(=N)N)NC(=O)[C@H](CCCNC(=N)N)NC(=O)[C@H](CCCNC(=N)N)NC(=O)[C@H](Cc1ccccc1)NC(=O)CNC(=O)[C@H](CCCNC(=N)N)NC(=O)[C@H](CS)NC(=O)[C@H](CCCNC(=N)N)NC(=O)CNC(=O)CN)C(=O)N[C@H](C(=O)N[C@@H](Cc1c[nH]cn1)C(=O)N[C@@H](CS)C(N)=O)[C@@H](C)O` [GMA4C_AC, reference compound] (H-GGRCRGFRRRCFCTTHC-NH2; N-terminus assumed)?
antifungal activity against B. cinerea in presence of cations ([1]; 100 mM NaCl or 100 mM KCl): retain their antifungal activity; SFM + 2 mM CaCl2 MIC (μM) ([1]; B. cinerea, Table 4): >6 (a few μM; SFM + 2 mM CaCl2 MIC (μM) ([1]; Table 10): >6 (a few μM

What does the source list for `C[C@@H](O)[C@H](NC(=O)[C@H](CS)NC(=O)[C@H](Cc1ccccc1)NC(=O)[C@H](CS)NC(=O)[C@H](CCCNC(=N)N)NC(=O)[C@H](CCCNC(=N)N)NC(=O)[C@H](CCCNC(=N)N)NC(=O)[C@H](Cc1ccccc1)NC(=O)CNC(=O)[C@H](CCCNC(=N)N)NC(=O)[C@H](CS)NC(=O)[C@H](CCCNC(=N)N)NC(=O)CN)C(=O)N[C@H](C(=O)N[C@@H](Cc1c[nH]cn1)C(=O)N[C@@H](CS)C(N)=O)[C@@H](C)O` [GMA4AC, reference compound] (H-GRCRGFRRRCFCTTHC-NH2)?
MIC (μM) Botrytis cinerea ([1]; SFM, Table 9): 6 µM; MIC (μM) Fusarium graminearum [7]: 6 µM (≈ 11.8 µg/mL); MIC (μM) SFM [6]: 3 µM (≈ 5.88 µg/mL)

Which “gray mold symptoms, drop inoculation assay, comparison within the peptide family” value ([5]; 1.5 μM) does the source give for `CC(C)C[C@@H]1NC(=O)[C@@H](NC(=O)[C@H](C)NC(=O)CN)CSSC[C@@H](C(=O)N[C@@H](Cc2ccc(O)cc2)C(N)=O)NC(=O)[C@H](Cc2c[nH]cn2)NC(=O)[C@H](CCCNC(=N)N)NC(=O)[C@H](Cc2ccc(O)cc2)NC(=O)[C@H](Cc2ccc(O)cc2)NC(=O)[C@H](Cc2c[nH]c3ccccc23)NC(=O)[C@H](Cc2ccccc2)NC(=O)[C@H](Cc2c[nH]c3ccccc23)NC(=O)CNC(=O)[C@H](Cc2ccc(O)cc2)NC(=O)[C@H](Cc2c[nH]cn2)NC(=O)[C@H](CCCCN)NC(=O)[C@H](CO)NC(=O)[C@H](Cc2c[nH]cn2)NC(=O)[C@H](CCCNC(=N)N)NC(=O)[C@H](CC(N)=O)NC(=O)[C@H](CCCCN)NC1=O` [GMAOe1C_V3] (H-GACLKNRHSKHYGWFWYYRHCY-NH2; disulfide 3-21; N-terminus assumed) here?
The value was “more effective”.

What about the “MIC (μM) SFM” value [6] of the same molecule?
Its value is 1.5 µM (≈ 4.31 µg/mL).

And the “MIC (μM) (SFM + 2 mM CaCl2)” value [6]?
Its value is 3 to 6 µM.

And the “MIC (μM) (SFM + 100 mM NaCl)” value [6]?
The value was 2 to 3 µM.

`CC(C)C[C@H](NC(=O)[C@H](CS)NC(=O)[C@H](C)NC(=O)CN)C(=O)N[C@@H](CCCCN)C(=O)N[C@@H](CC(N)=O)C(=O)N[C@@H](CCCNC(=N)N)C(=O)N[C@@H](Cc1c[nH]cn1)C(=O)N[C@@H](CO)C(=O)N[C@@H](CCCCN)C(=O)N[C@@H](Cc1c[nH]cn1)C(=O)N[C@@H](Cc1ccc(O)cc1)C(=O)NCC(=O)N[C@@H](CS)C(=O)N[C@@H](Cc1ccc(O)cc1)C(=O)N[C@@H](CS)C(=O)N[C@@H](Cc1ccc(O)cc1)C(=O)N[C@@H](Cc1ccc(O)cc1)C(=O)N[C@@H](CCCNC(=N)N)C(=O)N[C@@H](Cc1c[nH]cn1)C(=O)N[C@@H](CS)C(=O)N[C@@H](Cc1ccc(O)cc1)C(N)=O` [GMAOe1C_WT, reference compound] (H-GACLKNRHSKHYGCYCYYRHCY-NH2; N-terminus assumed) was tested. Which “reducing gray mold disease symptoms (lesion sizes)” value ([5]; detached N. benthamiana leaves, 1.5 μM, 3 μM and 6 μM, 48 h) did it give?
Its value is “only effective at 6 μM”.

How did the “MIC (μM) SFM” value [6] turn out when `CC(C)C[C@@H]1NC(=O)[C@@H](NC(=O)[C@H](C)NC(=O)CN)CSSC[C@@H](C(=O)N[C@@H](Cc2ccc(O)cc2)C(N)=O)NC(=O)[C@H](Cc2c[nH]cn2)NC(=O)[C@H](CCCNC(=N)N)NC(=O)[C@H](Cc2ccc(O)cc2)NC(=O)[C@H](Cc2ccc(O)cc2)NC(=O)[C@H](Cc2c[nH]c3ccccc23)NC(=O)[C@H](Cc2ccccc2)NC(=O)[C@H](Cc2ccccc2)NC(=O)CNC(=O)[C@H](Cc2ccc(O)cc2)NC(=O)[C@H](Cc2c[nH]cn2)NC(=O)[C@H](CCCCN)NC(=O)[C@H](CO)NC(=O)[C@H](Cc2c[nH]cn2)NC(=O)[C@H](CCCNC(=N)N)NC(=O)[C@H](CC(N)=O)NC(=O)[C@H](CCCCN)NC1=O` [GMAOe1C_V4] (H-GACLKNRHSKHYGFFWYYRHCY-NH2; disulfide 3-21; N-terminus assumed) was run?
Its value is 1.5 µM (≈ 4.25 µg/mL).

And the “MIC (μM) (SFM + 100 mM NaCl)” value [6]?
Its value is 6 µM.

Which “MIC (μM) SFM” value [6] does the source give for `CC[C@H](C)[C@@H]1NC(=O)[C@H](CCCNC(=N)N)NC(=O)[C@@H](NC(=O)[C@H](CCCNC(=N)N)NC(=O)CNC(=O)[C@@H](N)CO)CSSC[C@@H](C(N)=O)NC(=O)[C@H](CC(N)=O)NC(=O)[C@H](CCCCN)NC(=O)[C@H]([C@@H](C)O)NC(=O)[C@H](Cc2ccccc2)NC(=O)[C@H](Cc2ccc(O)cc2)NC(=O)[C@H](Cc2c[nH]c3ccccc23)NC(=O)[C@H](CCCNC(=N)N)NC(=O)[C@H](Cc2ccccc2)NC(=O)[C@H](CC(C)C)NC1=O` [GMA1C_V3] (H-SGRCRILFRWYFTKNC-NH2; disulfide 4-16; N-terminus assumed) here?
The value was 1.5 µM (≈ 3.07 µg/mL).

What about the “MIC (μM) (SFM + 2 mM CaCl2)” value [6] of the same molecule?
Its value is 6 µM.

And the “MIC (μM) (SFM + 100 mM KCl)” value [6]?
The value was over 12 µM.

And the “MIC (μM) (SFM + 100 mM NaCl)” value [6]?
The value was 3 µM.

`CC[C@H](C)[C@H](NC(=O)[C@H](CCCNC(=N)N)NC(=O)[C@H](CS)NC(=O)[C@H](CCCNC(=N)N)NC(=O)CNC(=O)[C@@H](N)CO)C(=O)N[C@@H](CC(C)C)C(=O)N[C@@H](Cc1ccccc1)C(=O)N[C@@H](CCCNC(=N)N)C(=O)N[C@@H](CS)C(=O)N[C@@H](Cc1ccccc1)C(=O)N[C@@H](CS)C(=O)N[C@H](C(=O)N[C@@H](CCCCN)C(=O)N[C@@H](CC(N)=O)C(=O)N[C@@H](CS)C(N)=O)[C@@H](C)O` [GMA1C_V1] (H-SGRCRILFRCFCTKNC-NH2; N-terminus assumed) was tested. Which “gray mold symptoms, drop inoculation assay” value [5] did it give?
Its value is “failed to reduce disease symptoms”.

B1: PD91.1.1: SEQ ID NO: 578 with N-terminal alanine; Setaria viridis wild-type defensin, expressed in Pichia pastoris (protein, listed as Setaria viridis)
chain: AYMCTTQNRFFHGRCVNNLNCASSCVHGRLGTGGHCATRKRSAADPGVDIDWVWNRRICVCVFQC
modifications: N-terminal alanine added
notes: Setaria viridis wild-type defensin, expressed in Pichia pastoris
How did the “F. graminearum PH-1 MIC Day 1” value [8] turn out when B1 was run?
The value was over 12 µM.

B2: PD127.1.1: SEQ ID NO: 732 with N-terminal alanine; wild-type defensin-like protein, expressed in Pichia pastoris (protein, listed as Potentilla micrantha)
chain: GACPLVQKRSKTWSGFCGSSNNCDKQCRTWEKAKHGACHATGDLKGTPRLKLRSCHARRSKDH
modifications: N-terminal alanine added
notes: wild-type defensin-like protein, expressed in Pichia pastoris
For B2, which “F. graminearum PH-1 MIC Day 1” value [8] is on record?
The value was over 12 µM.

B3: PD97.1.1: SEQ ID NO: 608 with N-terminal alanine; Rubus chingii wild-type defensin, expressed in Pichia pastoris (protein, listed as Rubus chingii)
chain: GACPLVSKRSKTWSGFCGSSNNCNKQCRSWESAQHGACHNTYKTVLGVKVISGRACFCYFCKKHT
modifications: N-terminal alanine added
notes: Rubus chingii wild-type defensin, expressed in Pichia pastoris
How did the “F. graminearum PH-1 MIC Day 1” value [8] turn out when B3 was run?
Its value is 1.5 µM.
